Experiments:
[1] = Degree of biodegradability: cumulative amount of CO2 generated over time (FIG. 4)
Source text: In describing the present invention, “biodegradable” refers to a definition based on ASTM […]-15 (Standard Test Method for Determination of Aerobic Biodegradation of Plastic Materials Under Controlled Composting Conditions, Incorporating Thermophilic Temperatures). […] This is a much faster biodegradation rate than that of poly (lactic acid) (PLA), which is a biodegradable polymer.

microorganisms = assay: Sterilization experiment, overall conclusion; type: cell-based; conditions: conclusion drawn from Table 1
Procedure: (§1) Meanwhile, a sterilization experiment was conducted on ethyl 3-HP, a biodegradable material manufactured by the system of the present invention, and the data thereof is shown in Table 1 below. The sterilization experiment was conducted by a test method according to the KCL-FIR-1002:2021 standard.
From the above data, it can be confirmed that […].

[2] = tested on: Escherichia coli ATCC 25922; assay: Sterilization experiment (antimicrobial test, KCL-FIR-1002:2021): Escherichia coli; type: cell-based
Procedure: as §1

[3] = tested on: Staphylococcus aureus ATCC 6538; assay: Sterilization experiment (antimicrobial test, KCL-FIR-1002:2021): Staphylococcus aureus; type: cell-based
Procedure: as §1

[4] = tested on: MRSA bacteria (Staphylococcus aureus subsp. aureus); assay: Sterilization experiment (antimicrobial test, KCL-FIR-1002:2021): MRSA bacteria; type: cell-based
Procedure: as §1

[5] = tested on: Streptococcus mutans ATCC 25175; assay: Sterilization experiment (antimicrobial test, KCL-FIR-1002:2021): Streptococcus mutans; type: cell-based
Procedure: as §1

[6] = tested on: (Bacillus cereus ATCC 11778); assay: Sterilization experiment (antimicrobial test, KCL-FIR-1002:2021): Bacillus cereus; type: cell-based; conditions: after 24 hours, versus BLANK
Procedure: as §1

[7] = tested on: Streptococcus (Bacillus cereus ATCC 11778); assay: as above; type: cell-based; conditions: initial concentration 3.0*10^4 CFU/ml, BLANK 3.1*10^5
Procedure: as §1

O=C(O)CCO [3-HP, 3-hydroxy propionate]
Biodegradability compared to PLA [1]: excellent biodegradability compared to PLA | Bacteriostatic / sterilizing effect (microorganisms): only the bacteriostatic effect and no sterilizing effect

CCOC(=O)CCO [Ethyl 3-HP, ethyl 3-hydroxypropionate]
Bacteriostatic reduction rate ([2]; after 24 hours, versus BLANK): 20% | Concentration after 24 hours ([2]; initial concentration 1.3*10^4 CFU/ml, BLANK 1.5*10^5): 1.2*10^5 CFU/ml | Bacteriostatic reduction rate ([3]; after 24 hours, versus BLANK): 8.1% | Concentration after 24 hours ([3]; initial concentration 3.4*10^4 CFU/ml, BLANK 3.7*10^5): 3.4*10^5 CFU/ml | Bacteriostatic reduction rate ([4]; after 24 hours, versus BLANK): 61.5% | Concentration after 24 hours ([4]; initial concentration 2.5*10^4 CFU/ml, BLANK 2.6*10^5): 1.0*10^5 CFU/ml | Bacteriostatic reduction rate ([5]; after 24 hours, versus BLANK): 48.1% | Concentration after 24 hours ([5]; initial concentration 2.6*10^4 CFU/ml, BLANK 2.7*10^5): 1.4*10^5 CFU/ml | Bacteriostatic reduction rate [6]: 45.1% | Concentration after 24 hours [7]: 1.7*10^5 CFU/ml | Biodegradability compared to PLA [1]: excellent biodegradability compared to PLA
